Data as given in US8680073B2, “Stable hyaluronan/steroid formulation” (Genzyme Corporation, priority 2009, dated 2014).

Assays:
Assay type in all cases: physicochemical
[1] = Osmolality of HA viscosupplement/steroid formulations by heat treatment
Description: (§1) We conducted various experiments in which a number of steroids, both soluble and insoluble, were mixed with HA-based viscosupplements, and the heat stability of the HA/steroid formulations were evaluated at 121° C. for 30 min (simulated autoclave conditions), to achieve a bioburden inactivation of approximate 30 Fo, where Fo is the total heat applied during the cycle to achieve a desired probable inactivation ratio). Formulations were also evaluated after heating at 80° C. for 24 hours (simulated two year room temperature shelf-life).
(§2) Compositions retained suitable pH and osmolarity.

[2] = pH of HA viscosupplement/steroid formulations by heat treatment
Description: as §1, §2

[3] = Rheology of HA viscosupplement/steroid formulations by heat treatment; conditions: formulations of HARC with the steroid, compared to control without steroid
Description: as §1
Specifically we tested the TAH mixtures with SYNVISC® and hylastan products of Genzyme Corporation, Framingham Mass.^1 The rheological properties of the heat treated SYNVISC®/steroid and hylastan SGL-80/steroid formulations plus their controls are listed in Tables 1a and 1b, respectively, set out below. 1 Synvisc is a gel-like mixture that is made up of hylan A fluid, hylan B gel, and salt water. Hylan A and hylan B are made from a substance called hyaluronan (also known as sodium hyaluronate) from chicken combs.

Row | Compound | Change in osmolality after mixing into the HA-based viscosupplements [1] | Change in pH after mixing into the HA-based viscosupplements [2] | Effect of the steroid on HARC properties after heat treatment [3]
1 | CC(C)(C)CC(=O)OCC(=O)[C@@]12OC(C)(C)O[C@@H]1C[C@H]1[C@@H]3CCC4=CC(=O)C=C[C@]4(C)[C@@]3(F)[C@@H](O)C[C@@]12C [TAH, triamcinolone hexacetonide] | no significant change | no significant change | behaved to comparably to control formulations having no steroid
2 | C[C@H]1C[C@H]2[C@@H]3CCC4=CC(=O)C=C[C@]4(C)[C@@]3(F)[C@@H](O)C[C@]2(C)[C@@]1(O)C(=O)COP(=O)(O)O [betamethasone phosphate] | – | – | exacerbated degradation of HARC properties after heat treatment
3 | CC(=O)OCC(=O)[C@@]1(O)[C@@H](C)C[C@H]2[C@@H]3CCC4=CC(=O)C=C[C@]4(C)[C@@]3(F)[C@@H](O)C[C@@]21C [betamethasone acetate] | – | – | interacted with HARC
